# In patent US20250235418A1, “Butyrate Analogues and Methods of Use for HIF Stabilization and Treatment of Bowel Disease” (THE REGENTS OF THE UNIVERSITY OF COLORADO, A BODY CORPORATE, priority 2022, published 2025):
# Key:
# [1] = test system: HIF-1α in murine enteroids; assay: HIF stabilization in differentiated murine enteroids; format: cell-based; conditions: 10 mM butyrate with or without 1 mM MCPA, 4 h
# [2] = test system: PHD (2-OG accumulation) in T84 IECs; assay: 2-OG levels in T84 cells as biomarker of PHD inhibition; format: cell-based; conditions: 3 h
# Method: (B) 2-OG concentrations in T84 cells treated with 10 mM butyrate with or without 1 mM MCPA or 30 μM IOX2 for 3 h
# The relationship between butyrate and HIF, were examined whether butyrate influences PHD activity by monitoring 2-OG levels. […] In this, we considered such 2-OG accumulation as a metabolic biomarker of PHD inhibition (FIG. 3A).
# PHD2181-402 [3] = target: T1, PHD2181-402 (Homo sapiens, UniProt Q9GZT9); assay: bioluminescent succinate detection assay of recombinant PHD2181-402 activity/inhibition; format: biochemical
# T1 construct: made in house
# T1 sequence (Q9GZT9 181-402): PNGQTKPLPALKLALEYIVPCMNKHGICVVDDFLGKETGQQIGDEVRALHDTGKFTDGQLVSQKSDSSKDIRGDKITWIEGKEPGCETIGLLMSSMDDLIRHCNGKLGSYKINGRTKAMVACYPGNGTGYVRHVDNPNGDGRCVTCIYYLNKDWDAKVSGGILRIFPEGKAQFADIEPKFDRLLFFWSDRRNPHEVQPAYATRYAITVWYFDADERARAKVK
# Description: To pinpoint if butyrate inhibits PHDs directly, we expressed recombinant PHD derived from the human PHD2 sequence. There are three human PHDs: PHD1, PHD2, and PHD3, with PHD2 being the most abundant and expressed in the majority of tissues, the most important regulator of HIF, particularly HIF-1α, and the only PHD that is embryonically lethal when deleted. PHD1 is exclusively localized to the nucleus, whereas PHD2 is mainly cytoplasmic, and PHD3 is both. […] Sequence comparisons and modeling studies indicate that the PHD2 active site is highly conserved among the PHDs.
# IC50s depend on exact experimental conditions, making direct comparisons and global applications difficult.
# HIF-1α in T84 cells = assay: HIF stabilization by butyrate in T84 cells (HIF-1α target mRNA, HIF-1α protein); format: cell-based; conditions: 4 h
# Method: (C) Quantified densitometry of HIF-1α protein expression in T84 cells treated with 10 mM butyrate with or without 1 mM MCPA for 4 h
# [4] = test system: HIF-1α / PHDs in murine colon tissue; assay: rectal gavage of butyrate or IOX2 in antibiotic SCFA-depleted mice; format: in vivo; conditions: 1 h, 100 mM butyrate, 1.5 mM IOX2
# PHD2181-402 [5] = target: T1, PHD2181-402; assay: microscale thermophoresis (MST) binding to PHD2181-402
# Description: (§1) Measurements were repeated 3 times.
# Uncompetitive inhibitors only bind to the enzyme substrate complex, whereas noncompetitive inhibitors can bind to enzyme alone or enzyme substrate complex since the inhibitor has a unique binding site distinct from the substrate binding site. […] Thus, our findings indicate that butyrate functions as a noncompetitive PHD inhibitor with a unique binding site.
# PHD2181-402 [6] = target: T1, PHD2181-402; assay: WaterLOGSY 1D NMR binding to PHD2181-402; conditions: for binding to PHD2181-402 by WaterLOGSY: 10 mM SCFA, 25 μM PHD2181-402
# Description: Protons attached to C4 were selectively inverted and acted as source of magnetization transfer. […] (G) Protons attached to C2 were selectively inverted.
# as §1
# This method enables sensitive and robust detection of binding (dissociation constants as weak as μM to low mM) based on the magnetization transfer between water molecules, proteins, and ligands of interest in close proximity via dipolar proton-proton cross-relaxation (nuclear Overhauser effect, NOE). […] Binding and non-binding ligands can be distinguished in a WaterLOGSY spectrum via their opposite signs in relation to water for their corresponding peaks.
# This technique allows for mapping of the ligand pharmacophore by monitoring the response of individual protons to an increase of ROEs contribution to the overall cross relaxation rate.
# HIF regulated targets = assay: intraperitoneal injection in C57BL/6 mice, HIF regulated targets (EPO, GLUT1); format: in vivo; conditions: IP, BA 73 mg/kg, MBA 80 mg/kg, 24h
# Method: Erythropoietin (EPO) is regulated by HIF stabilization. (A) EPO protein in blood serum was assessed by mesoscale assay (n=6-8). qPCR mRNA expression of HIF target mGLUT1 in kidney (B) and colon tissue (C) (n=3-8). Data analyzed by One-way ANOVA with Tukey for post hoc correction and presented as mean±S.E.M of two independent experiments, *p<0.05, **p<0.01, ***p<0.001, ****p<0.0001 […]
# At 24 h, mice were sacrificed followed by exsanguination, extraction of right kidney and distal colon for analysis of HIF stabilization and HIF target gene expression. SHBA induces HIF regulated targets in vivo. Erythropoietin (EPO) is regulated by HIF stabilization. (A) EPO protein in blood serum was assessed by mesoscale assay (n=6-8). (B) qPCR mRNA expression of HIF target mGLUT1 in colon tissue (n=3-4). Data are presented as mean±S.E.M of two independent experiments, *p<0.05, **p<0.01.
# A typical physiologic response to hypoxia is the increase in red blood cell production. Naturally, HIF is in charge of this response by regulating cell-type specific gene expression that leads to increased levels of the hormone erythropoietin (EPO).[10] […] We lastly explored the in-vivo effects of MBA in mediating induction of genes tightly regulated by HIF. […] After 24h of treatment, they were sacrificed and quickly exsanguinated to measure EPO levels in serum. […] Furthermore, we studied the induction of GLUT1, another classic HIF target responsible for the transport of various monosaccharides. Kidney and colon tissue were analyzed by real-time PCR to compare BA and MBA head-to-head. […] These findings support the ability of MBA to stabilize HIF in-vivo leading to the induction of classic target genes and transcription of a tightly regulated protein EPO.
structure (smiles),measurement,setting,value
"CCCC(=O)O [Butyrate, Butyric acid]",HIF-1α protein expression,[1],increased HIF-1α protein expression
same,HIF-1α target gene expression,[1],induced expression of HIF-1α target genes
same,2-OG levels in the presence of MCPA,[2]; 10 mM butyrate with 1 mM MCPA,significantly increased
same,2-OG levels compared to control,"[2]; 10 mM butyrate, 30 μM IOX2",significantly increased
same,mode of PHD inhibition,PHD2181-402 [3],noncompetitive
same,IC50,"PHD2181-402 [3]; 1 μM PHD2181-402, 10 μM 2-OG, 10-minute reaction, n=5-12, error: SEM, read-out: true half maximal inhibitory concentration (IC50) for PHD2181-402",5.3 mM
same,Ki,"PHD2181-402 [3]; IC50 to Ki conversion equation of Cer et al., read-out: noncompetitive Ki for PHD2181-402",5.3 mM
same,HIF stabilization in the presence of MCPA,HIF-1α in T84 cells; 10 mM butyrate with 1 mM MCPA,still stabilized HIF
same,HIF-1α protein levels,HIF-1α in T84 cells; 10 mM,increased
same,"HIF-1α target genes BNIP3, BNIP3L, GLUT1 mRNA",HIF-1α in T84 cells; 10 mM,induction of HIF-1α target genes
same,colon tissue 2-OG levels after antibiotics,[4],rescued
same,"mRNA expression of HIF-1α targets Bnip3, Bnip3l, Glu1 after antibiotics",[4],rescued
same,Kd,"PHD2181-402 [5]; 25 nM PHD2181-402, without 2-OG, read-out: dissociation constant (KD)",2 ± 3 mM
same,binding to PHD2181-402 in the presence of 2-OG by MST,PHD2181-402 [5]; with 500 nM 2-OG,no butyrate binding
same,binding to PHD2181-402 by WaterLOGSY,PHD2181-402 [6]; listed as Butyric acid,indicating binding
same,binding to PHD2181-402 by WaterLOGSY,PHD2181-402 [6]; listed as butyrate,indicative of binding
same,binding to the 2-OG and PHD2181-402 complex by WaterLOGSY,"PHD2181-402 [6]; 10 mM butyrate, 25 μM PHD2181-402, with 150 μM 2-OG",could not bind
same,GLUT1 mRNA in colon tissue,HIF regulated targets,significantly increased in colon tissue
same,GLUT1 mRNA in kidney,HIF regulated targets,induction of GLUT1 in kidney
